Source: PMC5536041, “Inhibitory Effects of Trapping Agents of Sulfur Drug Reactive Intermediates against Major Human Cytochrome P450 Isoforms” (International Journal of Molecular Sciences, 2017)
Like-named read-outs stand apart in the source and are kept apart here.

What was measured:
[1] = tested on: major human CYP isoforms (CYP1A2, 2C9, 2C19, 2D6 and 3A); assay: CYP inhibition in human liver microsomes, summary over the isoform panel; conditions: HLM + NADPH
CYP3A [2] = target: T1, CYP3A (Homo sapiens, UniProt P08684); conditions: microsomes
CYP2C9 [3] = target: T2, CYP2C9 (Homo sapiens, UniProt P11712); conditions: microsomes
CYP3A [4] = target: T1, CYP3A; conditions: microsomes; remark: listed apart in the source
[5] = tested on: major human CYP isoforms (CYP1A2, 2C9, 2C19, 2D6 and 3A)
CYP2D6 [6] = target: T3, CYP2D6 (Homo sapiens, UniProt P10635); conditions: microsomes
CYP2C19 [7] = target: T4, CYP2C19 (Homo sapiens, UniProt P33261); conditions: microsomes
CYP1A2 [8] = target: T5, CYP1A2 (Homo sapiens, UniProt P05177); conditions: microsomes
T5 sequence (P05177 1-516): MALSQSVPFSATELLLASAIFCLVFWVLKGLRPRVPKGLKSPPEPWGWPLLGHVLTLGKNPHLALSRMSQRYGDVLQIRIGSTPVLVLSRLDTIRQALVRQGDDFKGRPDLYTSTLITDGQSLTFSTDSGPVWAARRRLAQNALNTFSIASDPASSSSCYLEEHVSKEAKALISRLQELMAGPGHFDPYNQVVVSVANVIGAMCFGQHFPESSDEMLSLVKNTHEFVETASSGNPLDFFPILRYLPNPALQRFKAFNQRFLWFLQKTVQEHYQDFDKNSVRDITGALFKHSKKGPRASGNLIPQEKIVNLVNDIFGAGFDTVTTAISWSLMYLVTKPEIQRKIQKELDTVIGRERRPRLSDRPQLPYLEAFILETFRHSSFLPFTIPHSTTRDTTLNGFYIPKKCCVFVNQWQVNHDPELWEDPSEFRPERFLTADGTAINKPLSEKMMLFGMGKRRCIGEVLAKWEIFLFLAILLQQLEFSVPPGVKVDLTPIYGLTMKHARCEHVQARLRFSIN

CYP1A2 [9] = target: T5, CYP1A2; assay: CYP inhibition in human liver microsomes, CYP1A2 (tacrine probe)
[10] = tested on: major human CYP isoforms (CYP1A2, 2C9, 2C19, 2D6 and 3A); assay: in vitro; conditions: microsomes
CYP2D6 [11] = target: T3, CYP2D6; assay: CYP inhibition in human liver microsomes, CYP2D6 (dextromethorphan probe)
CYP2C9 [12] = target: T2, CYP2C9; assay: CYP inhibition in human liver microsomes, CYP2C9 ((S)-warfarin probe); conditions: for Activation of CYP2C9 observed at concentrations up to: HLM + NADPH, (S)-warfarin probe
CYP2C19 [13] = target: T4, CYP2C19; assay: CYP inhibition in human liver microsomes, CYP2C19 ((S)-mephenytoin probe); conditions: for Activation of CYP2C19 observed at concentrations up to: HLM + NADPH, (S)-mephenytoin probe
CYP3A [14] = target: T1, CYP3A; assay: in vitro; conditions: microsomes
CYP3A [15] = target: T1, CYP3A; assay: in vitro; conditions: microsomes; remark: listed apart in the source
[16] = tested on: ticlopidine metabolism in human liver microsomes (TSOD and TSO-NEM formation); assay: Trapping of reactive metabolites of ticlopidine with NEM in human liver microsomes; assay type: in vitro ADME; conditions: ticlopidine 1 μM
Procedure: Ticlopidine (1 μM) was incubated at 37 °C for 15 min in the presence or absence of various concentrations of NEM with HLM (0.5 mg/mL), NADPH (1 mM) and KPi (0.1 M), in a final incubation volume of 100 µL. Assay conditions were optimized with regard to protein concentration and incubation time, based on linear formation of TSOD. The incubations were performed over a concentration range of NEM (0.0007–40 mM) including a vehicle control, for a total of twelve incubations. A 50 µL sample was withdrawn at 15 min and the reactions were quenched in 100 µL of 0.1% formic acid in ACN containing an IS. Samples were centrifuged at 2000× g for 10 min and supernatants (75 µL) were removed and diluted with 0.1% formic acid in water (150 µL). The prepared samples were analyzed by LC-MS/MS for ticlopidine, N-ethylmaleimide-trapped S-oxide (TSO-NEM) and ticlopidine S-oxide dimer (TSOD). Peak areas were normalized to an IS, and the percentage of metabolite formed at the end of the incubation was calculated and compared to the incubation containing the highest peak area to IS ratio of metabolite (set at 100%).
The prepared samples were analyzed by LC-MS/MS using a Cohesive LX-2 Transcend Multiplexing system with Agilent 1100 series high pressure liquid chromatography (HPLC) pumps from Agilent Technologies (Santa Clara, CA, USA) and an HTS PAL autosampler from CTC Analytics (Carrboro, NC, USA) connected to a Sciex API5500-QTrap mass spectrometer with a Turbo V™ ion source (Foster City, CA, USA). A Phenomenex Kinetex Phenyl-Hexyl HPLC column (30 × 2.1 mm, 2.6 µ) was used with 0.1% formic acid in water (mobile phase A) or 0.1% formic acid in ACN (mobile phase B) flowing at 0.55 mL/min in the following gradient: mobile phase B was held at 1% for 0.4 min, increased to 5% over 0.2 min, to 55% over 6.7 min and to 95% over 0.5 min, where it was held for 0.75 min prior to re-equilibration at 1%. LC-MS/MS multiple reaction (MRM) transitions for the CYP inhibition assay were reported previously. […]

CYP1A2 [17] = target: T5, CYP1A2; assay: in vitro; conditions: microsomes

T1 sequence (P08684 2-503 limits assumed): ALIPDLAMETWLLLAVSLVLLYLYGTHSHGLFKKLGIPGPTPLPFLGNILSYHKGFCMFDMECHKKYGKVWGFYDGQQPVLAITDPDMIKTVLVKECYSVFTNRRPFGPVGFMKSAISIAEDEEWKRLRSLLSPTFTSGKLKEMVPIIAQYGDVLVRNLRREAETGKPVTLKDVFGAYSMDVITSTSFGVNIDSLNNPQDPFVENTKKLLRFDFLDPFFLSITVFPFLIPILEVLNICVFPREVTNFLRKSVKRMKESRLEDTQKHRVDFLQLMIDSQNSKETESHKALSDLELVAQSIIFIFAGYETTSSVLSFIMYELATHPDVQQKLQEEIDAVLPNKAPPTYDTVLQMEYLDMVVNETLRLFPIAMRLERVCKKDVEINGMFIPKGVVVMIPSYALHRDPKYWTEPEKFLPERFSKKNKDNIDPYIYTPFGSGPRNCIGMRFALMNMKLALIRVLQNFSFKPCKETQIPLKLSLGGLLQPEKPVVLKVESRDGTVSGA
T2 sequence (P11712 whole entry): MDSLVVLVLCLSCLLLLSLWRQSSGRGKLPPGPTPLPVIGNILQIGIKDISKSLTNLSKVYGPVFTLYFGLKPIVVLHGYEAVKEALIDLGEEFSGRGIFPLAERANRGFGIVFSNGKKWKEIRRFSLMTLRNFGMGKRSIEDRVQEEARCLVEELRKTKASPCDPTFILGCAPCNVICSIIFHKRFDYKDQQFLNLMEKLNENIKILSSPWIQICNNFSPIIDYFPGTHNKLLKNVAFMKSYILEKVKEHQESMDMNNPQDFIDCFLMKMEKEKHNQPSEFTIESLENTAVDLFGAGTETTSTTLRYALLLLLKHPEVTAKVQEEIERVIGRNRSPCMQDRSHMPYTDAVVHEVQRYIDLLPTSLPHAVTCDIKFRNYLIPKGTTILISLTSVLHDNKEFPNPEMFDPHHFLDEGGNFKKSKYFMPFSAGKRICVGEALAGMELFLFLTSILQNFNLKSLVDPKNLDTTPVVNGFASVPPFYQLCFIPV
T3 sequence (P10635 whole entry): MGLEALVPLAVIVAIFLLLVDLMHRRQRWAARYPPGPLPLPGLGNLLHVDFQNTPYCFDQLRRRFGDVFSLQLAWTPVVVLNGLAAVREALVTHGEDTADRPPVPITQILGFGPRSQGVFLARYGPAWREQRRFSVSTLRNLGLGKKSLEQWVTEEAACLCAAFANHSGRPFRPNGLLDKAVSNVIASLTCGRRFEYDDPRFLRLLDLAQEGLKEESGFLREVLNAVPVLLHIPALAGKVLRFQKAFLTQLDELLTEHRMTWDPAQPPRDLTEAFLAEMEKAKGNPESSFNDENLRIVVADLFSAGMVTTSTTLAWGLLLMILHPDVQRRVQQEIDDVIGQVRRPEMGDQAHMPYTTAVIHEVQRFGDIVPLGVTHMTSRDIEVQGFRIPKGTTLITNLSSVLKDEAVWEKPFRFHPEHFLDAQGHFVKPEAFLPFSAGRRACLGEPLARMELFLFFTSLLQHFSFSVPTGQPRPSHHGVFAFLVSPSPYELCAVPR
T4 sequence (P33261 whole entry): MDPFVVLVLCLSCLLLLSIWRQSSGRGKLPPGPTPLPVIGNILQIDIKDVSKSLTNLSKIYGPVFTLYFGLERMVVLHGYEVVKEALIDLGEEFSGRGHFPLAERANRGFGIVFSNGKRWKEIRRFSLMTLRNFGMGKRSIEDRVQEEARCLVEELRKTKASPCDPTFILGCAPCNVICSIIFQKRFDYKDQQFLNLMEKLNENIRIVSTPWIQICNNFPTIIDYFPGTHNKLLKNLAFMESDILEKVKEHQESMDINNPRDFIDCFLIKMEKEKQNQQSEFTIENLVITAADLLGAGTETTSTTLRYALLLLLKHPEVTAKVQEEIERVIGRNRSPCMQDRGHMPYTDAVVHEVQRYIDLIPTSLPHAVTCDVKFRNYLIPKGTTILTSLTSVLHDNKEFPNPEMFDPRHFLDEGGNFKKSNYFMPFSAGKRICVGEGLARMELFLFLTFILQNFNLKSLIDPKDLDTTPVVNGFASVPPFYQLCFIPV

## CC1(C)CC(=O)CC(=O)C1 [5,5-dimethyl-1,3-cyclohexanedione]
[1]
  Inhibition of CYP isoforms at concentrations tested: did not inhibit CYP isoforms at concentrations tested

## O=[As][O-].[Na+] [Arsenite, sodium arsenite]
CYP3A [2]
  IC50: > 10 mM
CYP2C9 [3]
  IC50: > 10 mM
CYP3A [4]
  IC50: > 10 mM
[5]
  Concentration up to which no CYP inhibition was shown: up to 10 mM
  Inhibition of CYP isoforms at concentrations tested: did not inhibit CYP isoforms at concentrations tested
CYP2D6 [6]
  IC50: > 10 mM
CYP2C19 [7]
  IC50: > 10 mM
CYP1A2 [8]
  IC50: > 10 mM

## C1COCCN1 [Morpholine]
CYP1A2 [9]
  IC50: > 100 mM
[10]
  IC50: 7.9 to 16 mM
CYP2D6 [11]
  IC50: 13 mM
CYP1A2 [8]
  Activation of CYP1A2: activation was observed
CYP2C9 [12]
  IC50: 7.9 mM
CYP2C19 [13]
  IC50: 14 mM

## CC(=O)N[C@@H](CCCCN)C(=O)O [N-Acetyl-lysine1, N-Acetyl-lysine]
[1]
  Inhibition of CYP isoforms at concentrations tested: did not inhibit CYP isoforms at concentrations tested
[1]; all isoforms tested
  Concentration up to which no CYP inhibition was shown: up to 50 mM
CYP3A [14]
  IC50: > 50 mM
CYP3A [15]
  IC50: > 50 mM

## CCN1C(=O)C=CC1=O [N-Ethylmaleimide (NEM), N-Ethylmaleimide]
[16]; HLM 0.5 mg/mL, NADPH, 15 min
  NEM concentration at and above which TSO-NEM formation rapidly decreases: ≥ 165 µM
  NEM concentrations with initial increase in TSOD formation: 0.7 to 18.3 µM
[16]; NEM 0.007–40 mM
  Response of TSO-NEM formation to increasing NEM concentration: bell-shaped response curve
CYP2D6 [11]
  IC50: > 40 mM
CYP1A2 [17]
  IC50: 120 µM
CYP2C9 [12]
  IC50: 3.2 mM
  Activation of CYP2C9 observed at concentrations up to: up to 1 mM
CYP2C19 [13]
  IC50: 2.9 mM
  Activation of CYP2C19 observed at concentrations up to: up to 0.4 mM

## CN1C(=O)C=CC1=O [N-Methylmaleimide]
CYP2C9 [12]
  Activation of CYP2C9 observed at concentrations up to: up to 0.2 mM
CYP2C19 [13]
  Activation of CYP2C19 observed at concentrations up to: up to 0.2 mM

## CN1CCCCC1 [N-Methylpiperidine]
CYP1A2 [9]; HLM + NADPH, tacrine probe
  Activation of CYP1A2 observed at concentrations up to: up to 12.5 mM

## O=C(O)CCP(CCC(=O)O)CCC(=O)O [Tris(2-carboxyethyl) phosphine (TCEP), Tris(2-carboxyethyl) phosphine]
CYP2D6 [11]; HLM + NADPH, dextromethorphan probe
  Activation of CYP2D6: activation was observed
